Source: ChEMBL document CHEMBL1157753, “Stereochemical requirements for the mineralocorticoid receptor antagonist activity of dihydropyridines” (J Med Chem, 2010)

How the values were obtained:
[1] = molecular target: Voltage-gated L-type calcium channel (Rattus norvegicus, UniProt P22002+Q02485+P27732); test: Inhibition of L-type calcium channel in rat A10 cells assessed as inhibition of depolarization-induced increase in calcium flux after 10 mins by FLIPR assay
[2] = molecular target: T1, Mineralocorticoid receptor (Homo sapiens, UniProt P08235)
T1 sequence (P08235 whole entry): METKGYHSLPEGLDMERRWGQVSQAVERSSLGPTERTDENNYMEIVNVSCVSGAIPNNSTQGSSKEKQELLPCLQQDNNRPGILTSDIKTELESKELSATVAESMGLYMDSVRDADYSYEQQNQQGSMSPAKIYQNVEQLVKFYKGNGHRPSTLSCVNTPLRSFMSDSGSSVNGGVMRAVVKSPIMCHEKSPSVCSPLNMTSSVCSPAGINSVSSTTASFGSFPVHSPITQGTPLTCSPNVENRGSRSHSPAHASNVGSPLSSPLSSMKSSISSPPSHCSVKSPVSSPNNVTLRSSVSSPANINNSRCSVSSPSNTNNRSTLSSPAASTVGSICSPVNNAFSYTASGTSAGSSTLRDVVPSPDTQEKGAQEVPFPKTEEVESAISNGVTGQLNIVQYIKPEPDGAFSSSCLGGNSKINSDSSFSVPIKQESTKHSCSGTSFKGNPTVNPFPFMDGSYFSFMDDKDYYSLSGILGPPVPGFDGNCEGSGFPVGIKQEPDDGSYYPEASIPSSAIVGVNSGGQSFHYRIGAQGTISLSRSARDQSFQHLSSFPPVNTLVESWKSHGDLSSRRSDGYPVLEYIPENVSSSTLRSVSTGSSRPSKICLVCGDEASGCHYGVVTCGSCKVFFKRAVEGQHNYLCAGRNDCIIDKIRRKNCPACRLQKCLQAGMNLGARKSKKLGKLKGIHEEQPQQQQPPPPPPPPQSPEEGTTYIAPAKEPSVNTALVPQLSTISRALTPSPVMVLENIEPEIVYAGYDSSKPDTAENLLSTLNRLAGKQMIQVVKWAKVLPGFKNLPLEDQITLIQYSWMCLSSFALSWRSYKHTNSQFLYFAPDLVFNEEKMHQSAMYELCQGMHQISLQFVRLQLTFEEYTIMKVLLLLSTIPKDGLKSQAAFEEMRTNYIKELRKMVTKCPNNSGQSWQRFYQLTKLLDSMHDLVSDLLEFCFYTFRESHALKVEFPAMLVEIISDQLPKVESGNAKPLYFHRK
Description: Antagonist activity at Gal4-fused mineralocorticoid receptor expressed in human HuH7 cells assessed as inhibition of aldosterone-induced receptor activation by luciferase reporter gene assay

Androgen receptor = molecular target: T2, Androgen receptor (Homo sapiens, UniProt P10275); test: Inhibition of androgen receptor
T2 sequence (P10275 whole entry): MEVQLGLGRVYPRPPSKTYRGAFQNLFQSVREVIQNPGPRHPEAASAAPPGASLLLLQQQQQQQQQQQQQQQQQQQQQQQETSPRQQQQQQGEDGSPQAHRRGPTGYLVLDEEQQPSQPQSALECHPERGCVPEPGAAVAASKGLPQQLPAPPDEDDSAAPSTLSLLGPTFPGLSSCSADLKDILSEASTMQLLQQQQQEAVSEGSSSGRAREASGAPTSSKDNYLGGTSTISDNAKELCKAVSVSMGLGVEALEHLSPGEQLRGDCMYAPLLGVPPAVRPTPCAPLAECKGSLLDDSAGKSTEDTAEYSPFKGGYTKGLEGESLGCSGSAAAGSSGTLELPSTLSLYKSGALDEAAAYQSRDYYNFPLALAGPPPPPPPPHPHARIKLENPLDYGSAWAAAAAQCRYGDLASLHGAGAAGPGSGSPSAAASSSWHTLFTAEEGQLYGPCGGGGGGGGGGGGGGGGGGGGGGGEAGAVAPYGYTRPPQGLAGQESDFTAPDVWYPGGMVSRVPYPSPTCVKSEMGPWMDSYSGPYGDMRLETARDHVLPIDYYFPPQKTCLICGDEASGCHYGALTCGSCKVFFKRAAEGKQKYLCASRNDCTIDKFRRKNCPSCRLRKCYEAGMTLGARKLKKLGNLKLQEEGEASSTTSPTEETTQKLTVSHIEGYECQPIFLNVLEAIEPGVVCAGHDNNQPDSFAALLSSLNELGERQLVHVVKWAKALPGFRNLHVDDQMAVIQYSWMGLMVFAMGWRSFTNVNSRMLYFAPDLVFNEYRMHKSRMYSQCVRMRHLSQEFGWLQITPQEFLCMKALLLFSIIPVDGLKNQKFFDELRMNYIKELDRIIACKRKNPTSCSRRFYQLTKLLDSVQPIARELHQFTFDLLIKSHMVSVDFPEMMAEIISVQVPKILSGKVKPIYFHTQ

Progesterone receptor = molecular target: T3, Progesterone receptor (Homo sapiens, UniProt P06401); test: Inhibition of progesterone receptor
T3 sequence (P06401 whole entry): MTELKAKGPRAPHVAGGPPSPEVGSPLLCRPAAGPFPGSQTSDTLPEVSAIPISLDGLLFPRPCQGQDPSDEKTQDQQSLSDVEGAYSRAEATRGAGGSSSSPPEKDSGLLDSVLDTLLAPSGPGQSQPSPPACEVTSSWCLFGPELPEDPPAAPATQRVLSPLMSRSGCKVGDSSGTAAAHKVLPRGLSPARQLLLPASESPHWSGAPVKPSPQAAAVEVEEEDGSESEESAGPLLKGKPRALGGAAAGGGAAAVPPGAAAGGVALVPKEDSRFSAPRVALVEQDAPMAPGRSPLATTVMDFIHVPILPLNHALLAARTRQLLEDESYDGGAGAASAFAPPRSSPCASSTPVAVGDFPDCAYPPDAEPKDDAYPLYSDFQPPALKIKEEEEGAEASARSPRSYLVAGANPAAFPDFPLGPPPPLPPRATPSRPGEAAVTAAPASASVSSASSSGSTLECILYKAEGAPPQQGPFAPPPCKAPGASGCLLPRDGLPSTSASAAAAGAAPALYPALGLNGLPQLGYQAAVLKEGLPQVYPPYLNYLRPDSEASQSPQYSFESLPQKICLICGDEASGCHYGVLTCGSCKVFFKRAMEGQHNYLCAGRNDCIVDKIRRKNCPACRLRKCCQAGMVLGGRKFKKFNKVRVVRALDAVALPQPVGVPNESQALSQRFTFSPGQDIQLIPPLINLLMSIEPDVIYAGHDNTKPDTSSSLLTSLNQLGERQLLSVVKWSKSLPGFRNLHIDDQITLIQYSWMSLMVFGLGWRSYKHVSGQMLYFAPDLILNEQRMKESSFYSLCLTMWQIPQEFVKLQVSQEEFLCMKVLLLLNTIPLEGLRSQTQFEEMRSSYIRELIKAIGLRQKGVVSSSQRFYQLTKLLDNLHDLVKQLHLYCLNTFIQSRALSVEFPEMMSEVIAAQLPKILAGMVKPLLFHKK

[3] = Clearance in Sprague-Dawley rat at 2 mg/kg, iv by LC/MS/MS analysis; type: ADME, organism-based; design: dose 2 mg/kg, route intravenous; conditions: in vivo
[4] = Volume of distribution at steady state in Sprague-Dawley rat at 2 mg/kg, iv by LC/MS/MS analysis; type: ADME, organism-based; design: dose 2 mg/kg, route intravenous; conditions: in vivo, read-out: Vdss
[5] = (§1) Half life in Sprague-Dawley rat at 2 mg/kg, iv by LC/MS/MS analysis; type: ADME, organism-based; design: dose 2 mg/kg, route intravenous; conditions: Sprague-Dawley, in vivo
Estrogen receptor = molecular target: T4, Estrogen receptor (Homo sapiens, UniProt P03372); test: Inhibition of estrogen receptor
T4 sequence (P03372 whole entry): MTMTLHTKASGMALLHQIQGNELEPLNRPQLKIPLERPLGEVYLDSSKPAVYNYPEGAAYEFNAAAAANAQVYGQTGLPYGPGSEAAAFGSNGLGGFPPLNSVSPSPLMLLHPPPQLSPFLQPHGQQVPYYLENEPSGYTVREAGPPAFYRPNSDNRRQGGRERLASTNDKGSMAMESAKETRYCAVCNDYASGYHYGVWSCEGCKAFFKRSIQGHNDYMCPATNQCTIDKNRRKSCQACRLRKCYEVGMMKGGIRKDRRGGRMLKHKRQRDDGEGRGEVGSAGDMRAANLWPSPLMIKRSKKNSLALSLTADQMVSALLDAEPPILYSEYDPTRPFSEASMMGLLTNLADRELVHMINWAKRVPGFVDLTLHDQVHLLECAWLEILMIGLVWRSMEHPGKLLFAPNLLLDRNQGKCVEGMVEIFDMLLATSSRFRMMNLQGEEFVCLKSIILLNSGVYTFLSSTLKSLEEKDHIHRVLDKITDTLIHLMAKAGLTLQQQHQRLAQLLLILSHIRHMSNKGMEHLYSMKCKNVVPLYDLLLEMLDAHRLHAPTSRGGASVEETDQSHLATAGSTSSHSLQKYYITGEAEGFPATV

Glucocorticoid receptor = molecular target: T5, Glucocorticoid receptor (Homo sapiens, UniProt P04150); test: Inhibition of glucocorticoid receptor
T5 sequence (P04150 whole entry): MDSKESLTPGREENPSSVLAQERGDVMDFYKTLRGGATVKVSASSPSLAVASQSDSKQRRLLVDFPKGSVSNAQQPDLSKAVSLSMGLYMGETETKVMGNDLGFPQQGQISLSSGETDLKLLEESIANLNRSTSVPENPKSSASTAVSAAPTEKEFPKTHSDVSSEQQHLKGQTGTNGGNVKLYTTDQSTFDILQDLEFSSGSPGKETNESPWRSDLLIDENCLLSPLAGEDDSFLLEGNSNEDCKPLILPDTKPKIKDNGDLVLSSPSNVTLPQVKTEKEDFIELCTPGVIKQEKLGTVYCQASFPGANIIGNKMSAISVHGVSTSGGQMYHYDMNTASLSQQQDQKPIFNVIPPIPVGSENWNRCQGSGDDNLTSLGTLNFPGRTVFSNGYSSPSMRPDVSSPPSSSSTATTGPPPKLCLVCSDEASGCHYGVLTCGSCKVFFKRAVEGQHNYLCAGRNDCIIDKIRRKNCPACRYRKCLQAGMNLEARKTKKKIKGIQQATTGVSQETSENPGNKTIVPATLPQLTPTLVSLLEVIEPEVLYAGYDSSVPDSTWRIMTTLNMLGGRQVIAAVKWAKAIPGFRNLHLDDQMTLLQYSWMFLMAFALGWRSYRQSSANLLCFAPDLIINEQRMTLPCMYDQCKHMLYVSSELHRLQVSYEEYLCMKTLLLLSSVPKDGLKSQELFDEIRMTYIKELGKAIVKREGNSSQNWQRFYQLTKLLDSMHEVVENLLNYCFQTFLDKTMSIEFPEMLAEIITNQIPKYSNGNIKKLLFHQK

Rattus norvegicus = test: as §1; type: ADME, organism-based; design: dose 2 mg/kg, route intravenous; conditions: in vivo

| Structure (SMILES) | IC50 [1] [nM] | IC50 [2] [nM] | further results |
| --- | --- | --- | --- |
| COC(=O)C1=C(C)NC(C)=C(C(=O)OC(C)(C)C)[C@H]1c1cccc([N+](=O)[O-])c1 | > 0.5 | 536 |  |
| COC(=O)C1=C(CCl)NC(C)=C(C#N)[C@H]1c1ccc(F)cc1Cl | 2070 | 41 |  |
| CCCC1=C(C(=O)OCC)[C@@H](c2ccnc3ccccc23)C(C#N)=C(C)N1 | 1330 | 3280 |  |
| CCCC1=C(C(=O)OCC)[C@H](c2ccnc3ccccc23)C(C#N)=C(C)N1 | 2200 | 10 | IC50 (Androgen receptor): 730 nM; IC50 (Progesterone receptor): 1340 nM; clearance [3]: 9.7 mL/min/kg; Vd [4]: 0.42 L/kg; half-life [5]: 6.54 h; IC50 (Estrogen receptor): > 10000 nM; IC50 (Glucocorticoid receptor): 270 nM |
| COC(=O)C1=C(CCl)NC(C)=C(C#N)[C@H]1c1ccnc2ccccc12 | 7930 | 340 |  |
| COC(=O)C1=C(CCl)NC(C)=C(C#N)[C@@H]1c1ccc(F)cc1Cl | 570 | 2200 |  |
| COC(=O)C1=C(CCl)NC(C)=C(C#N)[C@@H]1c1ccnc2ccccc12 | 11270 | 2800 |  |
| CC1=C(C#N)[C@H](c2ccc(F)cc2Cl)C(C(=O)OC(C)(C)C)=C(C)N1 | 3840 | 3520 |  |
| CC1=C(C#N)[C@@H](c2ccc(F)cc2Cl)C(C(=O)OC(C)(C)C)=C(C)N1 |  | 3.7 | IC50 (Androgen receptor): 246 nM; IC50 (Progesterone receptor): 3520 nM; t1/2 (Rattus norvegicus): 1.14 h; IC50 (Estrogen receptor): > 10000 nM; IC50 (Glucocorticoid receptor): 1370 nM |
| COC(=O)C1=C(C)NC(C)=C(C#N)[C@@H]1c1ccnc2ccccc12 | 14570 | 469 |  |
| COC(=O)C1=C(C)NC(C)=C(C#N)[C@H]1c1ccnc2ccccc12 | 7730 | 77 |  |
| COC(=O)C1=C(C)NC(C)=C(C(=O)OC(C)(C)C)[C@@H]1c1cccc([N+](=O)[O-])c1 | 607 | 46 | IC50 (Androgen receptor): 1270 nM; IC50 (Progesterone receptor): 768 nM; IC50 (Glucocorticoid receptor): 3260 nM |
| CC1=C(C#N)C(c2ccc(F)cc2Cl)C(C(=O)OC(C)(C)C)=C(C)N1 (racemic) | > 1550 | 59 |  |
| CCCC1=C(C(=O)OCC)C(c2ccnc3ccccc23)C(C#N)=C(C)N1 (racemic) | 1100 | 31 |  |
| COC(=O)C1=C(C)NC(C)=C(C(=O)OC(C)(C)C)C1c1cccc([N+](=O)[O-])c1 (racemic) [MEBUDIPINE] | > 20 | 126 |  |
| COC(=O)[C@@H]1CC2=CC(=O)CC[C@]2(C)[C@@]23O[C@@H]2C[C@@]2(C)[C@@H](CC[C@@]24CCC(=O)O4)[C@H]13 [EPLERENONE] | > 5000 |  |  |
